Measurements taken from ChEMBL document CHEMBL3997818, “Structure-activity relationship studies of 1-(1'-hydroxyalkyl)rupestonic acid methyl esters against influenza viruses” (Bioorg Med Chem Lett, 2017).
≈ marks a conversion by molar mass, not a printed value.

Experiments:
Influenza B virus = assay: Antiviral activity against Influenza B virus infected in MDCK cells assessed as inhibition of virus-induced cytopathic effect after 40 hrs; format: functional, cell-based
Influenza A virus = assay: Antiviral activity against Influenza A virus H1N1 infected in MDCK cells assessed as inhibition of virus-induced cytopathic effect after 40 hrs; format: functional, cell-based
[1] = Selectivity index, ratio of TC50 for MDCK cells to IC50 for Influenza B virus infected in MDCK cells; format: toxicity, cell-based; settings: dog, read-out: Selectivity Index
[2] = Selectivity index, ratio of TC50 for MDCK cells to IC50 for Influenza A virus H3N2 infected in MDCK cells; format: toxicity, cell-based; settings: dog, read-out: Selectivity Index
[3] = Cytotoxicity against MDCK cells after 48 hrs by Reed and Muench analysis; format: cell-based, Canis lupus familiaris; settings: dog, read-out: TC50
Influenza A virus H3N2 = assay: Antiviral activity against Influenza A virus H3N2 infected in MDCK cells assessed as inhibition of virus-induced cytopathic effect after 40 hrs; format: functional, cell-based
[4] = Selectivity index, ratio of TC50 for MDCK cells to IC50 for Influenza A virus H1N1 infected in MDCK cells; format: toxicity, cell-based; settings: dog, read-out: Selectivity Index

Row | Compound | IC50 (Influenza B virus) [µg/mL] | IC50 (Influenza A virus) [µg/mL] | selectivity ratio [1] | selectivity ratio [2] | CC50 at 48 h [3] [µg/mL] | IC50 (Influenza A virus H3N2) [µg/mL] | selectivity ratio [4]
1 | C=C(C(=O)OC)[C@@H]1CC[C@H](C)[C@H]2C(=C(C)C(=O)[C@@H]2[C@H](O)/C=C(\C)CCC=C(C)C)C1 | 1.2 (≈ 2.89 µM) | 2.06 (≈ 4.97 µM) | 3 | 2.2 | 3.56 (≈ 8.59 µM) | 1.6 (≈ 3.86 µM) | 1.7
2 | C=C(C(=O)OC)[C@@H]1CC[C@H](C)[C@@H]2CC(=O)C(C)=C2C1 | > 18.5 | > 18.5 | – | 3 | 55.6 (≈ 212 µM) | 19 (≈ 72.4 µM) | –
3 | C=C(C(=O)OC)[C@@H]1CC[C@H](C)[C@H]2C(=C(C)C(=O)[C@@H]2[C@@H](C)O)C1 | 72 (≈ 235 µM) | 90 (≈ 294 µM) | 7 | – | 500 (≈ 1630 µM) | > 167 | 5
4 | C=C(C(=O)OC)[C@@H]1CC[C@H](C)[C@H]2C(=C(C)C(=O)[C@@H]2[C@H](O)CC)C1 | 18.5 (≈ 57.8 µM) | 14.4 (≈ 44.8 µM) | 7 | – | 167 (≈ 520 µM) | > 55.6 | 9
5 | C=C(C(=O)OC)[C@@H]1CC[C@H](C)[C@H]2C(=C(C)C(=O)[C@@H]2C(O)c2cc(F)cc(F)c2)C1 (single isomer, unassigned) | 18.5 (≈ 45.8 µM) | 2.63 (≈ 6.5 µM) | 1.7 | 2.2 | 32.1 (≈ 79.3 µM) | 14 (≈ 34.6 µM) | 12.2
6 | C=C(C(=O)OC)[C@@H]1CC[C@H](C)[C@H]2C(=C(C)C(=O)[C@@H]2C(O)c2cc(OC)c(OC)c(OC)c2)C1 (single isomer, unassigned) | > 55.6 | 13 (≈ 28.4 µM) | – | 3 | 167 (≈ 363 µM) | 56 (≈ 122 µM) | 13
7 | C=C(C(=O)OC)[C@@H]1CC[C@H](C)[C@H]2C(=C(C)C(=O)[C@@H]2C(O)c2ccc(OC)cc2)C1 (single isomer, unassigned) | 18.5 (≈ 46.5 µM) | > 18.5 | 4.3 | – | 80.1 (≈ 201 µM) | > 18.5 | –
8 | C=C(C(=O)OC)[C@@H]1CC[C@H](C)[C@H]2C(=C(C)C(=O)[C@@H]2C(O)c2cccs2)C1 (single isomer, unassigned) | > 2.06 | > 2.06 | – | 7.5 | 8.9 (≈ 23.8 µM) | 1.19 (≈ 3.18 µM) | –
9 | C=C(C(=O)OC)[C@@H]1CC[C@H](C)[C@H]2C(=C(C)C(=O)[C@@H]2C(O)c2ccc(F)cc2)C1 (single isomer, unassigned) | 11 (≈ 28.5 µM) | 19 (≈ 49.2 µM) | 7.5 | – | 80.1 (≈ 207 µM) | > 18.5 | 4.3
10 | C=C(C(=O)OC)[C@@H]1CC[C@H](C)[C@H]2C(=C(C)C(=O)[C@@H]2C(O)c2cc(Cl)cc(Cl)c2)C1 (single isomer, unassigned) | > 6.17 | > 6.17 | – | 1.7 | 10.7 (≈ 24.4 µM) | 6 (≈ 13.7 µM) | –
11 | C=C(C(=O)OC)[C@@H]1CC[C@H](C)[C@H]2C(=C(C)C(=O)[C@@H]2C(O)c2ccccc2)C1 (single isomer, unassigned) | > 6.17 | 6.17 (≈ 16.7 µM) | – | 2.1 | 12.8 (≈ 34.8 µM) | 6 (≈ 16.3 µM) | 2.1
12 | C=C(C(=O)OC)[C@@H]1CC[C@H](C)[C@H]2C(=C(C)C(=O)[C@@H]2C(O)c2ccc([N+](=O)[O-])s2)C1 (single isomer, unassigned) | 2.06 (≈ 4.91 µM) | 1.6 (≈ 3.81 µM) | 2.1 | – | 4.28 (≈ 10.2 µM) | > 2.06 | 2.7
13 | C=C(C(=O)OC)[C@@H]1CC[C@H](C)[C@H]2C(=C(C)C(=O)[C@@H]2C(O)c2cc(C(F)(F)F)cc(C(F)(F)F)c2)C1 (single isomer, unassigned) | > 18.5 | 11 (≈ 21.8 µM) | – | 1.7 | 32.1 (≈ 63.6 µM) | 18.5 (≈ 36.7 µM) | 3
14 | C=C(C(=O)OC)[C@@H]1CC[C@H](C)[C@H]2C(=C(C)C(=O)[C@@H]2C(O)c2ccncc2)C1 (single isomer, unassigned) | 18.5 (≈ 50.1 µM) | 10.7 (≈ 28.9 µM) | 4.3 | – | 80.1 (≈ 217 µM) | > 18.5 | 7.5
15 | C=C(C(=O)OC)[C@@H]1CC[C@H](C)[C@H]2C(=C(C)C(=O)[C@@H]2C(O)c2ccc(N(C)C)cc2)C1 (single isomer, unassigned) | > 18.5 | 10.7 (≈ 26 µM) | – | 1.7 | 32.1 (≈ 78 µM) | 18.5 (≈ 45 µM) | 3
16 | C=C(C(=O)OC)[C@@H]1CC[C@H](C)[C@H]2C(=C(C)C(=O)[C@@H]2C(O)c2ccc(OC(F)(F)F)cc2)C1 (single isomer, unassigned) | > 18.5 | > 18.5 | – | 1.7 | 32.1 (≈ 70.9 µM) | 18 (≈ 39.8 µM) | –
17 | CCOC(=O)C1=C[C@@H](OC(CC)CC)[C@H](NC(C)=O)[C@@H](N)C1 [OSELTAMIVIR] | – | 3.9 (≈ 12.5 µM) | – | – | – | 1.7 (≈ 5.44 µM) | –
18 | C=C(C(=O)O)[C@@H]1CC[C@H](C)[C@@H]2CC(=O)C(C)=C2C1 [PECHUELOIC ACID] | 24 (≈ 96.6 µM) | 55.6 (≈ 224 µM) | 10 | 4.3 | 240 (≈ 968 µM) | 55.6 (≈ 224 µM) | 4.3
19 | NC(=O)c1ncn([C@@H]2O[C@H](CO)[C@@H](O)[C@H]2O)n1 [RIBAVIRIN] | 0.8 (≈ 3.28 µM) | 2.1 (≈ 8.6 µM) | 1400 | 1100 | – | 1.1 (≈ 4.5 µM) | 560
